In PMC3472760, “New 14-Membered Cyclopeptide Alkaloids from Zizyphus oxyphylla Edgew” (International Journal of Molecular Sciences, 2012):

Columns and labels:
[1] = system: Escherchia coli (ATCC 25922); experiment: Antibacterial MIC, microplate dilution with tetrazolium violet; assay type: cell-based, Escherichia coli; conditions: compounds in DMSO serially diluted with sterile water in microplates, overnight, 37 °C, 100% relative humidity, tetrazolium violet read-out, lowest concentration inhibiting growth
Method: (§1) All compounds were screened for antibacterial activity against Escherchia coli (ATCC 25922), Bacillus subtilis (ATCC 6633), Shigella flexeneri (clinical isolate), Staphylococcus aureus (ATCC 25923), Pseudomonas aeruginosa (ATCC 27853), and Salmonella typhi (ATCC 19430), according to the method as reported previously. The disc diffusion technique was used to determine the antibacterial activity of the test compounds. The compounds were dissolved in DMSO to obtain a 10 mg/mL solution. A known volume ([…]) of the solution was applied on to the sterilized filter paper discs with the help of a micropipette. The discs were dried at room temperature overnight and stored in sterile dry containers. Discs, soaked with […] of DMSO, and air dried at room temperature, were used as negative control. Bacterial cultures were grown in a nutrient broth medium at 37 °C overnight and spread on to solidified nutrient agar medium in Petri plates using sterilized cotton swabs in a standard microbiological working environment. Test and control discs were then applied to the solidified medium surface with the help of sterilized forceps. The plates were incubated at 37 °C for 12–15 h. The results were recorded by measuring the zone of inhibition in mm against each compound. Impenem was used as standard drug. MIC was calculated as previously reported. Compounds were briefly dissolved in DMSO and serially diluted with sterile water in microplates in a laminar flow cabinet. The same volume of an actively rowing culture of the test bacteria was added to the different wells and cultures were grown overnight in 100% relative humidity at 37 °C. The next morning, tetrazolium violet was added to all the wells. Growth was indicated by a violet color of the culture. The lowest concentration of the test solution that led to an inhibition of growth was taken as the MIC. The negative control DMSO had no influence on the growth at the highest concentration used. Impenem was used as controls for comparison (See Table 1).

[2] = system: Bacillus subtilis (ATCC 6633); experiment: as above; assay type: cell-based; conditions: compounds in DMSO serially diluted with sterile water in microplates, overnight, 37 °C, 100% relative humidity, tetrazolium violet read-out
Method: as §1

[3] = system: Shigella flexeneri (clinical isolate); experiment: as above; assay type: cell-based; conditions: compounds in DMSO serially diluted with sterile water in microplates, overnight, 37 °C, 100% relative humidity, tetrazolium violet read-out
Method: as §1

[4] = system: Salmonella typhi (ATCC 19430); experiment: as above; assay type: cell-based; conditions: compounds in DMSO serially diluted with sterile water in microplates, overnight, 37 °C, 100% relative humidity, tetrazolium violet read-out
Method: as §1

[5] = system: Staphylococcus aureus (ATCC 25923); experiment: as above; assay type: cell-based; conditions: compounds in DMSO serially diluted with sterile water in microplates, overnight, 37 °C, 100% relative humidity, tetrazolium violet read-out
Method: as §1

[6] = system: Pseudomonas aeruginosa (ATCC 27853); experiment: as above; assay type: cell-based; conditions: compounds in DMSO serially diluted with sterile water in microplates, overnight, 37 °C, 100% relative humidity, tetrazolium violet read-out
Method: as §1

[7] = system: tested bacterial pathogens; experiment: Antibacterial activity, overall verdict over the panel; assay type: cell-based; conditions: verdict over the six tested bacterial pathogens of Table 2
Method: as §1

Row | Compound | Minimum Inhibitory Concentration (MIC), Escherichia coli [1] | Minimum Inhibitory Concentration (MIC), Bacillus subtilis [2] | Minimum Inhibitory Concentration (MIC), Shigella flexeneri [3] | Minimum Inhibitory Concentration (MIC), Salmonella typhi [4] | Minimum Inhibitory Concentration (MIC), Staphylococcus aureus [5] | Minimum Inhibitory Concentration (MIC), Pseudomonas aeruginosa [6] | Antibacterial activity (in words) [7] | Minimum Inhibitory Concentration (MIC), Salmonella typhi ([4]; listed as Oxyphylline B (4))
1 | CCC(C)C1NC(=O)C2C(CCN2C(=O)C(Cc2c[nH]c3ccccc23)N(C)C)Oc2ccc(OC)c(c2)/C=C/NC1=O (stereo not drawn) [Compound 3, nummularin-R] | 25 µg/mL | 10 µg/mL | 100 µg/mL | 50 µg/mL | 50 µg/mL | 100 µg/mL | low antibacterial activities | –
2 | C[C@@H](O)[C@H]1C(=O)N2C(C(=O)O)=C(SCCN=CN)C[C@H]12 [Standard, Impenem, reference compound] | 0.0002 µg/mL | 0.0005 µg/mL | 0.0003 µg/mL | 0.0014 µg/mL | 0.0009 µg/mL | 0.0021 µg/mL | – | –
3 | Oxyphylline B [Compound 4] | 5 µg/mL | – | 25 µg/mL | – | 25 µg/mL | 50 µg/mL | – | 50 µg/mL
4 | Oxyphylline C [Compound 5] | 10 µg/mL | 50 µg/mL | 50 µg/mL | 50 µg/mL | 10 µg/mL | 50 µg/mL | low antibacterial activities | –
5 | Oxyphylline D [Compound 1] | 10 µg/mL | 25 µg/mL | 50 µg/mL | 25 µg/mL | 25 µg/mL | 50 µg/mL | low antibacterial activities | –
6 | nummularin-C [Compound 2] | 10 µg/mL | 25 µg/mL | 100 µg/mL | 10 µg/mL | 25 µg/mL | 100 µg/mL | low antibacterial activities | –
